Measured values taken from US20050080076A1 (Xanodyne Pharmacal, Inc., priority 2003, published 2005).
Read-outs that look alike come from different tables or passages of the source.

What was measured:
Muscarinic M4 = target: T1, Muscarinic M4 (Homo sapiens, UniProt P08173); assay: Receptor binding, Muscarinic M4
T1 sequence (P08173 1-479): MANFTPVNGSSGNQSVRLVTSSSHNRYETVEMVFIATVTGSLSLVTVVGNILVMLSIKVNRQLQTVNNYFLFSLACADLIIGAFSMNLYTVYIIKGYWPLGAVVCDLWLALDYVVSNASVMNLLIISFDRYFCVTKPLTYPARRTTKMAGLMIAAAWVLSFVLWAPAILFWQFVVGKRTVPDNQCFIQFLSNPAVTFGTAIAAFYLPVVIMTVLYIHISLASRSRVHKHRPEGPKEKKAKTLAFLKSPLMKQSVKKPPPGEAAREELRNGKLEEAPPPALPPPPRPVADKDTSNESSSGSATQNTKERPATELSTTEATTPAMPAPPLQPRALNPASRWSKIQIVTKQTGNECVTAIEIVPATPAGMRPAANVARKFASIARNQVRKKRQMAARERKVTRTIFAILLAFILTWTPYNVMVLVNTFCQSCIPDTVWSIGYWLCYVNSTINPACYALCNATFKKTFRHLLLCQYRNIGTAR
Protocol: (§1) Receptor-ligand binding studies were performed as known to one skilled in the art. Compounds evaluated were LMP, the parent compound, the NDM LMP metabolite of LMP, and the sulfoxide metabolite of LMP. These studies verified receptor binding and affinity by the parent compound, as well as identified other potential receptors for the parent compound and its metabolites, and identified and verified receptors and receptor affinity for the metabolites.
(§2) Dopamine receptor affinity included binding to D1, D2, D3, D4, and D5 receptors. Serotonin receptor affinity included binding to 5-HT1A, 5-HT2A, 5-HT2B, 5-HT2, 5-HT5A, 5-HT6, and 5-HT7 receptors. Alpha adrenergic receptor affinity included binding to α1A, α1B, α1C, α2A, α2B, and α2C receptors. Muscarinic receptor affinity included binding to M1, M2, M3, M4, and M5 receptors. Binding to the histamine H1 receptor, the calcium ion channel receptor, and the sodium ion channel receptor were also evaluated. In each of the tables, the following abbreviations are used: LMP indicates the parent compound levomepromazine. NDM LMP indicates the N-desmethyl (N-desmethyl) metabolite. Sulfoxide indicates the sulfoxide metabolite. […] Ki (the inhibition constants of binding) indicate binding affinity.

Serotonin 5-HT2C = target: T2, Serotonin 5-HT2C (Homo sapiens, UniProt P28335); assay: Receptor binding, Serotonin 5-HT2C
T2 sequence (P28335 33-458): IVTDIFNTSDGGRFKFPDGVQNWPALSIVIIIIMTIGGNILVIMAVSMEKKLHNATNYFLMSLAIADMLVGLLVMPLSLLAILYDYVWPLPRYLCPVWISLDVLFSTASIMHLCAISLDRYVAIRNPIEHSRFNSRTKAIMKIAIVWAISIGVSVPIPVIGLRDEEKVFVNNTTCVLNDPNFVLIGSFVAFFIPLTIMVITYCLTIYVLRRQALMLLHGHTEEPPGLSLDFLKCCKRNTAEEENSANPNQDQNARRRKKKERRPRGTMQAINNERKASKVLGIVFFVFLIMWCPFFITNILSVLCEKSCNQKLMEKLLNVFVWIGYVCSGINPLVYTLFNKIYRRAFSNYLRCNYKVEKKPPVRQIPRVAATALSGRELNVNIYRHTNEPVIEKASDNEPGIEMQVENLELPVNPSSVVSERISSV
Protocol: as §1, §2

Sodium Channel = assay: Receptor binding, Sodium Channel; design: key to Relative Affinity: ≧ indicates greater or equal affinity; = indicates about the same affinity; − indicates no affinity
Protocol: as §1, §2

α2 adrenergic receptors = assay: Receptor affinity summary, α2 adrenergic receptors; type: binding; design: key to Relative Affinity: ≧ indicates greater or equal affinity; = indicates about the same affinity; − indicates no affinity; conditions: for Relative Affinity: α2-Adrenergic
Protocol: as §1, §2

Muscarinic M2 = target: T3, Muscarinic M2 (Homo sapiens, UniProt P08172); assay: Receptor binding, Muscarinic M2
T3 sequence (P08172 1-466): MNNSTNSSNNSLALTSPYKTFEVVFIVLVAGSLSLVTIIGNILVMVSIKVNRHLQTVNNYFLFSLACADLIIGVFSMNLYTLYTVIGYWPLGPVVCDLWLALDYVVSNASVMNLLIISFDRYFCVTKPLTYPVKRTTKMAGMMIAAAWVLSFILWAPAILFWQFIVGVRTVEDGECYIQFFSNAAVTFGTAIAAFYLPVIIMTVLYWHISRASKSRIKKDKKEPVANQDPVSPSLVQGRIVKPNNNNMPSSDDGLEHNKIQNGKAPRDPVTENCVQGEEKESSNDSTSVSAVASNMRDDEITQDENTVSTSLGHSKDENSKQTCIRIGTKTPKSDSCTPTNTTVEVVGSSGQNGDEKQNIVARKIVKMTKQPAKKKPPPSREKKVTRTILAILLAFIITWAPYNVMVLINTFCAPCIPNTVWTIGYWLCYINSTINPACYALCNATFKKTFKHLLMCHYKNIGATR
Protocol: as §1, §2

Dopamine D3 = Dopamine D3 (Homo sapiens, UniProt P35462); assay: Receptor binding, Dopamine D3
Protocol: as §1, §2

Dopamine D5 = Dopamine D5 (Homo sapiens, UniProt P21918); assay: Receptor binding, Dopamine D5
Protocol: as §1, §2

Adrenergic α2C = target: T4, Adrenergic α2C (Homo sapiens, UniProt P18825); assay: Receptor binding, Adrenergic α2C
T4 sequence (P18825 1-462): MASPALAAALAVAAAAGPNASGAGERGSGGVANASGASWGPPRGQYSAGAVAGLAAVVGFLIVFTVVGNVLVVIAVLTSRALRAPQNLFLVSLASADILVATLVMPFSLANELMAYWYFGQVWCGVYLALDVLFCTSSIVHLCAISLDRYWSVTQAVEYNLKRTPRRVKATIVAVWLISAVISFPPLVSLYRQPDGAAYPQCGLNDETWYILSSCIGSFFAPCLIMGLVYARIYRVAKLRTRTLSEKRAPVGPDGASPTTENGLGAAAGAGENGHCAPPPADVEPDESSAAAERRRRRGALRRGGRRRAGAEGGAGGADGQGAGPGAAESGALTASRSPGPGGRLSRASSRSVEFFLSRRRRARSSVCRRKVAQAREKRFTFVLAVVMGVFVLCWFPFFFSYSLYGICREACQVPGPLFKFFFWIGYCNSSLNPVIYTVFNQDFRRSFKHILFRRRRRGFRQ
Protocol: as §1, §2

Dopamine D2 = Dopamine D2 (Homo sapiens, UniProt P14416); assay: Receptor binding, Dopamine D2
Protocol: as §1, §2

Muscarinic M3 = Muscarinic M3 (Homo sapiens, UniProt P20309); assay: Receptor binding, Muscarinic M3
Protocol: as §1, §2

Dopamine D2, sequence (P14416 whole entry): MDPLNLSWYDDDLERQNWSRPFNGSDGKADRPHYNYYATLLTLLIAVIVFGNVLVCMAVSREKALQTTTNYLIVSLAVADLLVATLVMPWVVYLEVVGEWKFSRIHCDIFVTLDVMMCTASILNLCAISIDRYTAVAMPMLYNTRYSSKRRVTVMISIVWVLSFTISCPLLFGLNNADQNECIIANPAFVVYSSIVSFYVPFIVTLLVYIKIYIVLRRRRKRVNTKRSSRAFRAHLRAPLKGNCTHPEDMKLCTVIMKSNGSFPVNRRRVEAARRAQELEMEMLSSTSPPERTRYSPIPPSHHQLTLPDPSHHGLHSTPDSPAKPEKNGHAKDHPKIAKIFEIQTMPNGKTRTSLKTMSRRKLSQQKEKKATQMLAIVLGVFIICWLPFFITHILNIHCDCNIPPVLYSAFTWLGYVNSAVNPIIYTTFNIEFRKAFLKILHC
Muscarinic M3, sequence (P20309 whole entry): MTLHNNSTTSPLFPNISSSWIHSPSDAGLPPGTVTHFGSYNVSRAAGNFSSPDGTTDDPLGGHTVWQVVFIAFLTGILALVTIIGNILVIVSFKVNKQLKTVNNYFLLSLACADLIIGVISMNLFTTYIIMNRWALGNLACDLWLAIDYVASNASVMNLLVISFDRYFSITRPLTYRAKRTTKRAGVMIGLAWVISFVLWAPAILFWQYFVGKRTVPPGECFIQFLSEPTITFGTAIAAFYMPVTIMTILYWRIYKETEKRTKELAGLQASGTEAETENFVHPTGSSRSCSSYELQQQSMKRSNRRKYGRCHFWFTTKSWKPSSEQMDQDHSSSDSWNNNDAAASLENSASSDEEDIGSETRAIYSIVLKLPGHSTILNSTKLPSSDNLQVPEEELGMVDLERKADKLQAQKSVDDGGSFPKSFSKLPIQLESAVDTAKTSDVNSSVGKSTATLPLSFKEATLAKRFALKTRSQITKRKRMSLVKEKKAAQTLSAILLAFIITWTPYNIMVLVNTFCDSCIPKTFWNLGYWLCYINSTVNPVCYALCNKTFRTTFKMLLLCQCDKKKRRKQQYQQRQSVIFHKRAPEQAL
Dopamine D5, sequence (P21918 whole entry): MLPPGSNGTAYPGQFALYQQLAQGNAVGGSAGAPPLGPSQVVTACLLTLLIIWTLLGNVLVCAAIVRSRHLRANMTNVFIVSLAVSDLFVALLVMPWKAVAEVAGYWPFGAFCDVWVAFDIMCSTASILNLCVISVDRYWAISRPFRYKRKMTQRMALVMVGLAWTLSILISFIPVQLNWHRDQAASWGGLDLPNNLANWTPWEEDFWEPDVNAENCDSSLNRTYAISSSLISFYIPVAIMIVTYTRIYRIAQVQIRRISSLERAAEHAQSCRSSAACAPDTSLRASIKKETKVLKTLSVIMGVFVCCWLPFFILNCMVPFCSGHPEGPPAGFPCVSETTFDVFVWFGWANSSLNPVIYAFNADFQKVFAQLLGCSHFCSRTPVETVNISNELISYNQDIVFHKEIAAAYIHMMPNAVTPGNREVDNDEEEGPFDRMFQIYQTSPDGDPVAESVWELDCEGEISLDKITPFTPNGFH
Dopamine D3, sequence (P35462 whole entry): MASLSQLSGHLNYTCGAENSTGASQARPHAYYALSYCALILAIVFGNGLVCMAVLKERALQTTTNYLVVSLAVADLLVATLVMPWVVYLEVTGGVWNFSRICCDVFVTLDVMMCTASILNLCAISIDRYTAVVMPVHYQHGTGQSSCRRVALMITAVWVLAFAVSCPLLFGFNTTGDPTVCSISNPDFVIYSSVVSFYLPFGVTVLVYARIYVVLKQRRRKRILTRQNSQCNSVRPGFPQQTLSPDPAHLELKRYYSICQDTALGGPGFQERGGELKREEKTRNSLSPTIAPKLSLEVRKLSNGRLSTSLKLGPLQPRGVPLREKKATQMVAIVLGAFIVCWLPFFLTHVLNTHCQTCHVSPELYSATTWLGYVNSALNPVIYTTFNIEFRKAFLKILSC

Structure (SMILES) | Ki (Muscarinic M4) | Ki (Serotonin 5-HT2C) | Ki (Sodium Channel) | Relative Affinity (Sodium Channel) | Ki (Sodium Channel; read-out: Ki) | binding affinity to α2 adrenergic receptors (in words) (α2 adrenergic receptors) | Relative Affinity (α2 adrenergic receptors) | Ki (Muscarinic M2) | Ki (Dopamine D3) | Ki (Dopamine D5) | Ki (Adrenergic α2C) | Ki (Dopamine D2) | Ki (Muscarinic M3)
COc1ccc2c(c1)N(C[C@H](C)CN(C)C)c1ccccc1[S+]2[O-] (some centres unmarked) [Sulfoxide, levomepromazine sulfoxide] | 318 nM | 1980 nM | no affinity was detected | − | > 10000 nM | no affinity was detected | − | 1290 nM | > 10000 nM | > 10000 nM | > 10000 nM | > 10000 nM | 551 nM
COc1ccc2c(c1)N(C[C@H](C)CN(C)C)c1ccccc1S2 [LMP, Levomepromazine] | 34 nM | 8 nM |  |  | 1090 nM | demonstrated binding |  | 263 nM | 4 nM | 180 nM | 77 nM | 8 nM | 39 nM
CNCC(C)CN1c2ccccc2Sc2ccc(OC)cc21 (stereo not drawn) [NDM LMP, R(+) 2-methoxy-10-2-methyl-3-monomethylaminopropyl phenothiazine] | 88 nM | 9 nM |  | NDM LMP > LMP | 643 nM | demonstrated binding | LMP = NDM LMP | 325 nM | 5 nM | 243 nM | 74 nM | 17 nM | 47 nM
